Assay results from patent US20260293898A1 (priority 2023, published 2026).

Legend:
[1] = tested on: Pythium ultimum; assay: Pythium ultimum / liquid culture (seedling damping off); assay type: cell-based; conditions: Globisporangium ultimum, read-out: control of Pythium ultimum
[2] = tested on: Plasmopara viticola; assay: Plasmopara viticola / grape / leaf disc preventative; assay type: in vivo; conditions: 200 ppm, grape vine leaf disks, inoculated 1 day after application, 6-8 days after application, compared to untreated control
[3] = tested on: Phytophthora infestans; assay type: in vivo; conditions: 200 ppm; tomato leaf disks, preventative, inoculated 1 day after application; 5-7 days after application; compared to untreated control

SMILES: COC(=O)Nc1ccc(-c2cnc3c(C)cc(C(=O)N(C)c4ccc(F)cc4)cn23)cn1 [X.12, methyl N-[5-[6-[(4-fluorophenyl)-methyl-carbamoyl]-8-methyl-imidazo[1,2-a]pyridin-3-yl]-2-pyridyl]carbamate]
- inhibition of growth at 20 ppm [1]: ≥ 80%
- control of Plasmopara viticola [2]: at least 80%

SMILES: COC(=O)Nc1ccc(-c2cnc3c(C)cc(C(=O)N(C)c4ccc(Cl)cc4)cn23)cc1 [X.08, methyl N-[4-[6-[(4-chlorophenyl)-methyl-carbamoyl]-8-methyl-imidazo[1,2-a]pyridin-3-yl]phenyl]carbamate]
- inhibition of growth at 20 ppm [1]: ≥ 80%
- control of Plasmopara viticola [2]: at least 80%

SMILES: COC(=O)Nc1ccc(-c2cnc3ccc(C(=O)N(C)c4ccc(F)c(OC)c4)cn23)cn1 [X.01, methyl N-[5-[6-[(4-fluoro-3-methoxy-phenyl)-methyl-carbamoyl]imidazo[1,2-a]pyridin-3-yl]-2-pyridyl]carbamate]
- inhibition of growth at 20 ppm [1]: ≥ 80%
- control of Plasmopara viticola [2]: at least 80%

SMILES: COC(=O)Nc1ccc(-c2cnc3c(NC(C)=O)cc(C(=O)N(C)c4ccc(F)c(OC)c4)cn23)cn1 [X.20, methyl N-[5-[8-acetamido-6-[(4-fluoro-3-methoxy-phenyl)-methyl-carbamoyl]imidazo[1,2-a]pyridin-3-yl]-2-pyridyl]carbamate]
- inhibition of growth at 20 ppm [1]: ≥ 80%
- control of Plasmopara viticola [2]: at least 80%

SMILES: COC(=O)Nc1ccc(-c2cnc3ccc(C(=O)N(C)c4ccc(Cl)c(OC)c4)cn23)cn1 [X.11, methyl N-[5-[6-[(4-chloro-3-methoxy-phenyl)-methyl-carbamoyl]imidazo[1,2-a]pyridin-3-yl]-2-pyridyl]carbamate]
- inhibition of growth at 20 ppm [1]: ≥ 80%
- control of Plasmopara viticola [2]: at least 80%

SMILES: COCN(C(=O)c1cc(C)c2ncc(-c3ccc(NC(=O)OC)nc3)n2c1)c1ccc(F)c(OC)c1 [X.03, methyl N-[5-[6-[(4-fluoro-3-methoxy-phenyl)-(methoxymethyl)carbamoyl]-8-methyl-imidazo[1,2-a]pyridin-3-yl]-2-pyridyl]carbamate]
- inhibition of growth at 20 ppm [1]: ≥ 80%
- control of Plasmopara viticola [2]: at least 80%

SMILES: COC(=O)Nc1ccc(-c2cnc3cc(C)c(C(=O)N(C)c4ccc(F)cc4)cn23)cn1 [X.13, methyl N-[5-[6-[(4-fluorophenyl)-methyl-carbamoyl]-7-methyl-imidazo[1,2-a]pyridin-3-yl]-2-pyridyl]carbamate]
- inhibition of growth at 20 ppm [1]: ≥ 80%
- control of Plasmopara viticola [2]: at least 80%

SMILES: COC(=O)Nc1ccc(-c2cnc3c(NC(C)=O)cc(C(=O)N(C)c4ccc(F)cc4)cn23)cn1 [X.18, methyl N-[5-[8-acetamido-6-[(4-fluorophenyl)-methyl-carbamoyl]imidazo[1,2-a]pyridin-3-yl]-2-pyridyl]carbamate]
- inhibition of growth at 20 ppm [1]: ≥ 80%
- control of Plasmopara viticola [2]: at least 80%

SMILES: COCN(C(=O)c1ccc2ncc(-c3ccc(NC(=O)OC)nc3)n2c1)c1ccc(F)c(OC)c1 [X.04, methyl N-[5-[6-[(4-fluoro-3-methoxy-phenyl)-(methoxymethyl)carbamoyl]imidazo[1,2-a]pyridin-3-yl]-2-pyridyl]carbamate]
- inhibition of growth at 20 ppm [1]: ≥ 80%
- control of Plasmopara viticola [2]: at least 80%

SMILES: COCc1cc(C(=O)N(C)c2ccc(F)c(OC)c2)cn2c(-c3ccc(NC(=O)OC)nc3)cnc12 [X.21, methyl N-[5-[6-[(4-fluoro-3-methoxy-phenyl)-methyl-carbamoyl]-8-(methoxymethyl)imidazo[1,2-a]pyridin-3-yl]-2-pyridyl]carbamate]
- inhibition of growth at 20 ppm [1]: ≥ 80%
- control of Phytophthora infestans [3]: at least 80%
- control of Plasmopara viticola [2]: at least 80%

SMILES: COC(=O)Nc1ccc(-c2cnc3c(C)cc(C(=O)N(C)c4ccnc(OC)c4)cn23)cn1 [X.22, methyl N-[5-[6-[(2-methoxy-4-pyridyl)-methyl-carbamoyl]-8-methyl-imidazo[1,2-a]pyridin-3-yl]-2-pyridyl]carbamate]
- inhibition of growth at 20 ppm [1]: ≥ 80%
- control of Phytophthora infestans [3]: at least 80%
- control of Plasmopara viticola [2]: at least 80%

SMILES: COC(=O)Nc1ccc(-c2cnc3ccc(C(=O)N(CC#N)c4ccc(Cl)c(OC)c4)cn23)cn1 [X.15, methyl N-[5-[6-[(4-chloro-3-methoxy-phenyl)-(cyanomethyl)carbamoyl]imidazo[1,2-a]pyridin-3-yl]-2-pyridyl]carbamate]
- inhibition of growth at 20 ppm [1]: ≥ 80%
- control of Plasmopara viticola [2]: at least 80%

SMILES: COC(=O)Nc1ccc(-c2cnc3ccc(C(=O)N(CC#N)c4ccc(F)c(OC)c4)cn23)cn1 [X.14, methyl N-[5-[6-[cyanomethyl-(4-fluoro-3-methoxy-phenyl)carbamoyl]imidazo[1,2-a]pyridin-3-yl]-2-pyridyl]carbamate]
- inhibition of growth at 20 ppm [1]: ≥ 80%
- control of Plasmopara viticola [2]: at least 80%

SMILES: COC(=O)Nc1ccc(-c2cnc3ccc(C(=O)N(CS(C)(=O)=O)c4ccc(F)c(OC)c4)cn23)cn1 [X.16, methyl N-[5-[6-[(4-fluoro-3-methoxy-phenyl)-(methylsulfonylmethyl)carbamoyl]imidazo[1,2-a]pyridin-3-yl]-2-pyridyl]carbamate]
- inhibition of growth at 20 ppm [1]: ≥ 80%

SMILES: COC(=O)Nc1ccc(-c2cnc3ccc(C(=O)N(C)c4ccc(F)c(OC)c4)cn23)cc1 [X.05, methyl N-[4-[6-[(4-fluoro-3-methoxy-phenyl)-methyl-carbamoyl]imidazo[1,2-a]pyridin-3-yl]phenyl]carbamate]
- inhibition of growth at 20 ppm [1]: ≥ 80%
- control of Plasmopara viticola [2]: at least 80%

SMILES: CONC(=O)Nc1ccc(-c2cnc3ccc(C(=O)N(C)c4ccc(F)c(OC)c4)cn23)cn1 [X.17]
- inhibition of growth at 20 ppm [1]: ≥ 80%

SMILES: COC(=O)Nc1ccc(-c2cnc3c(C)cc(C(=O)N(C)c4ccc(F)c(OC)c4)cn23)cn1 [X.02, methyl N-[5-[6-[(4-fluoro-3-methoxy-phenyl)-methyl-carbamoyl]-8-methyl-imidazo[1,2-a]pyridin-3-yl]-2-pyridyl]carbamate]
- inhibition of growth at 20 ppm [1]: ≥ 80%
- control of Plasmopara viticola [2]: at least 80%

SMILES: COC(=O)Nc1ccc(-c2cnc3c(C)cc(C(=O)N(C)c4ccc(C#N)c(OC)c4)cn23)cn1 [X.23, methyl N-[5-[6-[(4-cyano-3-methoxy-phenyl)-methyl-carbamoyl]-8-methyl-imidazo[1,2-a]pyridin-3-yl]-2-pyridyl]carbamate]
- inhibition of growth at 20 ppm [1]: ≥ 80%
- control of Phytophthora infestans [3]: at least 80%
- control of Plasmopara viticola [2]: at least 80%

SMILES: COc1cc(N(C)C(=O)c2ccc3ncc(-c4ccc(NC(=O)C5CC5)nc4)n3c2)ccc1F [X.06, 3-[6-(cyclopropanecarbonylamino)-3-pyridyl]-N-(4-fluoro-3-methoxy-phenyl)-N-methyl-imidazo[1,2-a]pyridine-6-carboxamide]
- inhibition of growth at 20 ppm [1]: ≥ 80%
- control of Phytophthora infestans [3]: at least 80%
- control of Plasmopara viticola [2]: at least 80%

SMILES: COC(=O)Nc1ccc(-c2cnc3ccc(C(=O)N(C)c4ccc(C#N)c(OC)c4)cn23)cn1 [X.10, methyl N-[5-[6-[(4-cyano-3-methoxy-phenyl)-methyl-carbamoyl]imidazo[1,2-a]pyridin-3-yl]-2-pyridyl]carbamate]
- inhibition of growth at 20 ppm [1]: ≥ 80%
- control of Plasmopara viticola [2]: at least 80%

SMILES: COC(=O)Nc1ccc(-c2cnc3ccc(C(=O)N(C)c4ccc(F)c(C)c4)cn23)cn1 [X.09, methyl N-[5-[6-[(4-fluoro-3-methyl-phenyl)-methyl-carbamoyl]imidazo[1,2-a]pyridin-3-yl]-2-pyridyl]carbamate]
- inhibition of growth at 20 ppm [1]: ≥ 80%
- control of Plasmopara viticola [2]: at least 80%

SMILES: CCN(C(=O)c1ccc2ncc(-c3ccc(NC(=O)OC)nc3)n2c1)c1ccc(F)cc1 [X.19, methyl N-[5-[6-[ethyl-(4-fluorophenyl)carbamoyl]imidazo[1,2-a]pyridin-3-yl]-2-pyridyl]carbamate]
- inhibition of growth at 20 ppm [1]: ≥ 80%
- control of Plasmopara viticola [2]: at least 80%

SMILES: COC(=O)Nc1ccc(-c2cnc3ccc(C(=O)N(C)c4ccc(F)cc4)cn23)cc1 [X.07, methyl N-[4-[6-[(4-fluorophenyl)-methyl-carbamoyl]imidazo[1,2-a]pyridin-3-yl]phenyl]carbamate]
- inhibition of growth at 20 ppm [1]: ≥ 80%
- control of Plasmopara viticola [2]: at least 80%
